Values of other authors in Sander's compilation of Henry's law constants (doi:10.1080/10643389609388492).

Experiment: Henry solubility constant Hcp at 298.15 K (mol/(m3 Pa))
Conditions: reference: Staudinger and Roberts (1996); cited value

Compared with CC(Cl)(Cl)Cl [1,1,1-trichloroethane], ClC(Cl)(Cl)Cl [tetrachloromethane] is lower in “Henry solubility constant Hcp” value: 0.00058 for the first, 0.00034 for the second.

First: ClCCl [dichloromethane]
Second: CCCl [chloroethane]
The “Henry solubility constant Hcp” value of the first is higher: 0.0036 for the first, 0.00083 for the second.

Compared with Cc1ccccc1 [methylbenzene], Clc1ccccc1 [chlorobenzene] is higher in “Henry solubility constant Hcp” value: 0.0015 for the first, 0.0027 for the second.

Compared with O=Cc1ccccc1 [benzaldehyde], CCc1ccccc1 [ethylbenzene] is lower in “Henry solubility constant Hcp” value: 0.39 for the first, 0.0012 for the second.

Compared with CC(C)=O [propanone], Cc1cccc(C)c1 [1,3-dimethylbenzene] is lower in “Henry solubility constant Hcp” value: 0.3 for the first, 0.0013 for the second.

First: ClC(Cl)C(Cl)Cl [1,1,2,2-tetrachloroethane]
Second: ClCC(Cl)Cl [1,1,2-trichloroethane]
The “Henry solubility constant Hcp” value of the first is higher: 0.024 for the first, 0.011 for the second.

Compared with CC(Cl)CCl (stereo not given) [1,2-dichloropropane], ClCC(Cl)CCl [1,2,3-trichloropropane] is higher in “Henry solubility constant Hcp” value: 0.0034 for the first, 0.034 for the second.

Going from C=C(Cl)Cl [1,1-dichloroethene] to ClC=C(Cl)Cl [trichloroethene], the “Henry solubility constant Hcp” value rises from 0.00034 to 0.00099.

First: ClC(Br)Br [dibromochloromethane]
Second: ClC(Cl)Br [bromodichloromethane]
The “Henry solubility constant Hcp” value of the first is higher: 0.0085 for the first, 0.004 for the second.

Going from C=CCl [chloroethene] to ClC(Cl)=C(Cl)Cl [tetrachloroethene], the “Henry solubility constant Hcp” value rises from 0.00039 to 0.00058.

Going from Cc1ccccc1C [1,2-dimethylbenzene] to Cc1ccc(C)cc1 [1,4-dimethylbenzene], the “Henry solubility constant Hcp” value falls from 0.0019 to 0.0013.

Going from c1ccccc1 [benzene] to ClC(Cl)(Cl)C(Cl)(Cl)Cl [hexachloroethane], the “Henry solubility constant Hcp” value rises from 0.0016 to 0.0025.

In the case of BrC(Br)Br [tribromomethane], the “Henry solubility constant Hcp” value is given as 0.017.
